Laboratory results: patent publication US20240190831A1, “TRANSTHYRETIN STABILIZING COMPOUNDS” (Protego Biopharma, Inc., priority 2021, published 2024)

Assay: In vitro rat liver S9 stability assay (formation of tafamidis)
Format: in vitro ADME
Settings: rat liver S9, 1 μM test compound, 37° C.
Procedure: A stability assay in liver S9 (rat or human) was used to evaluate the ability of a compound provided herein to convert to an active TTR stabilizer. The test compound was added to liver S9 and incubated at 37° C. in a water bath at a concentration of 1 μM. At each time point (0, 5, 10, 20, 30 and 60 min), stop solution (tolbutamide plus labetalol) was added to precipitate protein and mixed thoroughly. After centrifugation, an aliquot of supernatant was analyzed by LC-MS/MS. The percentage of formation of active agent was calculated at each time point.

| SMILES | Formation of tafamidis at 60 min |
| --- | --- |
| CN(C)C(=O)c1ccc2nc(-c3cc(Cl)cc(Cl)c3)oc2c1 [Compound 87, 2-(3,5-Dichlorophenyl)-N,N-dimethylbenzo[d]oxazole-6-carboxamide] | A (A is <25%) |
| O=C(NC1CCCC1)c1ccc2nc(-c3cc(Cl)cc(Cl)c3)oc2c1 [Compound 19, N-cyclopentyl-2-(3,5-dichlorophenyl)benzo[d]oxazole-6-carboxamide] | A (A is <25%) |
| O=C(c1ccc2nc(-c3cc(Cl)cc(Cl)c3)oc2c1)N1CC(O)C(F)(F)C1 (stereo not shown) [Compound 86] | A (A is <25%) |
| O=C(c1ccc2nc(-c3cc(Cl)cc(Cl)c3)oc2c1)N1CCCCC(F)(F)C1 [Compound 115] | A (A is <25%) |
| O=C(OCCc1ccn[nH]1)c1ccc2nc(-c3cc(Cl)cc(Cl)c3)oc2c1 [Compound 36, 2-(1H-pyrazol-5-yl) ethyl 2-(3,5-dichlorophenyl)benzo[d]oxazole-6-carboxylate] | D (D is ≥75%) |
| CC1(OC(=O)c2ccc3nc(-c4cc(Cl)cc(Cl)c4)oc3c2)CCNCC1.Cl [Compound 123] | A (A is <25%) |
| N#CCNC(=O)c1ccc2nc(-c3cc(Cl)cc(Cl)c3)oc2c1 [Compound 5, N-(cyanomethyl)-2-(3,5-dichlorophenyl)benzo[d]oxazole-6-carboxamide] | A (A is <25%) |
| CC(N1CCC(OC(=O)c2ccc3nc(-c4cc(Cl)cc(Cl)c4)oc3c2)C1)C(F)(F)F (stereo not shown) [Compound 45, 1-(1,1,1-trifluoropropan-2-yl)pyrrolidin-3-yl 2-(3,5-dichlorophenyl)benzo[d]oxazole-6-carboxylate] | B (B is ≥25 to <50%) |
| CC(O)CNC(=O)c1ccc2nc(-c3cc(Cl)cc(Cl)c3)oc2c1 (stereo not shown) [Compound 11, 2-(3,5-dichlorophenyl)-N-(2-hydroxypropyl)benzo[d]oxazole-6-carboxamide] | A (A is <25%) |
| O=C(c1ccc2nc(-c3cc(Cl)cc(Cl)c3)oc2c1)N1CC2(CC(O)C2)C1 [Compound 94] | A (A is <25%) |
| O=C(N[C@H]1CC[C@H](O)CC1)c1ccc2nc(-c3cc(Cl)cc(Cl)c3)oc2c1 [Compound 97] | A (A is <25%) |
| CC1(OC(=O)c2ccc3nc(-c4cc(Cl)cc(Cl)c4)oc3c2)CCN(CC(F)(F)F)CC1 [Compound 124] | A (A is <25%) |
| O=C(c1ccc2nc(-c3cc(Cl)cc(Cl)c3)oc2c1)N1CCCCC1 [Compound 89] | A (A is <25%) |
| O=C(c1ccc2nc(-c3cc(Cl)cc(Cl)c3)oc2c1)N1C[C@@H]2[C@@H](O)[C@@H]2C1 [Compound 109] | A (A is <25%) |
| CC(Cc1ccn[nH]1)OC(=O)c1ccc2nc(-c3cc(Cl)cc(Cl)c3)oc2c1 (stereo not shown) [Compound 38, 1-(1H-pyrazol-5-yl)propan-2-yl 2-(3,5-dichlorophenyl) benzo[d]oxazole-6-carboxylate] | B (B is ≥25 to <50%) |
| CC1(O)CCC2(CN(C(=O)c3ccc4nc(-c5cc(Cl)cc(Cl)c5)oc4c3)C2)C1 (stereo not shown) [Compound 111] | A (A is <25%) |
| O=C(c1ccc2nc(-c3cc(Cl)cc(Cl)c3)oc2c1)N(CCO)CC(F)F [Compound 90] | A (A is <25%) |
| CC(Cc1cnc[nH]1)OC(=O)c1ccc2nc(-c3cc(Cl)cc(Cl)c3)oc2c1 (stereo not shown) [Compound 80] | A (A is <25%) |
| O=C(OC1CCN(c2cnccn2)C1)c1ccc2nc(-c3cc(Cl)cc(Cl)c3)oc2c1 (stereo not shown) [Compound 52, 1-(pyrazin-2-yl)pyrrolidin-3-yl 2-(3,5-dichlorophenyl)benzo-[d]oxazole-6-carboxylate] | A (A is <25%) |
